This passage reports mutagenic call and call results from PubChem BioAssay AID1259408 (Genetic Toxicology Data Bank (GENE-TOX), 2018).

For the data set, the system named is GENE-TOX genotoxicity assays, various organisms and cells. In words: GENE-TOX mutagenicity studies. Conditions: for call: Assay Type: In vivo carcinogenicity studies.
Where [1] appears, read: Species/Cell Type: Human lymphocytes, Assay Type: Sister-chromatid exchange (SCE) in vitro, Assay Code: SCLT, Evaluation Type: Evaluation B (Post-1980).
Where [2] appears, read: Species/Cell Type: Salmonella typhimurium (one or more of the five standard strains: TA98, TA100, TA1535, TA1537, and TA1538), Assay Type: Histidine reverse gene mutation, Ames assay, Assay Code: SAL-, Evaluation Type: Evaluation A (Pre-1980).
Where [3] appears, read: Species/Cell Type: Allium cepa, Assay Type: Chromosome aberrations, Assay Code: ALC+, Evaluation Type: Evaluation A (Pre-1980).
Where [4] appears, read: Species/Cell Type: Salmonella typhimurium (one or more of the five standard strains: TA98, TA100, TA1535, TA1537, and TA1538), Assay Type: Histidine reverse gene mutation, Ames assay, Assay Code: SAL+, Evaluation Type: Evaluation A (Pre-1980).
Where [5] appears, read: Species/Cell Type: Mammalian polychromatic erythrocytes, Assay Type: Micronucleus test, chromosome aberrations, Assay Code: MNTT, Evaluation Type: Evaluation B (Post-1980).
[6] abbreviates: Species/Cell Type: Nonhuman, Assay Type: Sister-chromatid exchange (SCE) in vitro, Assay Code: SC2+D, Dose Response: With dose response, Evaluation Type: Evaluation B (Post-1980).
[7] abbreviates: Species/Cell Type: Rodents, Sex: Male, Assay Type: Dominant lethal test, Assay Code: DLT-, Evaluation Type: Evaluation A (Pre-1980).

Activity calls are given as the source filed them. No rule for the calls is given here.

With `O=c1[nH]c(=O)n([C@H]2C[C@H](O)[C@@H](CO)O2)cc1F`, the mutagenic call runs as follows: (Species/Cell Type: Aspergillus nidulans, Assay Type: Aneuploidy, chromosome aberrations, Assay Code: ASNT, Evaluation Type: Evaluation A (Pre-1980)) “no conclusion”; (Species/Cell Type: Aspergillus nidulans, Assay Type: Mitotic recombination, Assay Code: ASG+, Evaluation Type: Evaluation A (Pre-1980)) “active; positive”; (Species/Cell Type: Chinese hamster lung (V79) cells, Assay Type: Forward gene mutation at the HPRT or ouabain locus, Assay Code: V79-, Evaluation Type: Evaluation A (Pre-1980)) “inactive; negative”; (Species/Cell Type: Drosophila melanogaster, Assay Type: Aneuploidy, sex chromosome gain, chromosome aberrations, Assay Code: DAG+F, Evaluation Type: Evaluation A (Pre-1980)) “active; positive”; (Species/Cell Type: Drosophila melanogaster, Assay Type: Aneuploidy, whole sex chromosome loss, chromosome aberrations, Assay Code: DAC+F, Evaluation Type: Evaluation A (Pre-1980)) “active; positive”; (Species/Cell Type: Drosophila melanogaster, Assay Type: Sex-linked recessive lethal gene mutation, Assay Code: SRLT, Evaluation Type: Evaluation A (Pre-1980)) “no conclusion”. Besides, the mutagenic call was “inactive; negative” (Species/Cell Type: Escherichia coli polA (W3119 vs P3478), Assay Type: Rec-assay, DNA effects (bacterial DNA repair), Assay Code: RE1-, Evaluation Type: Evaluation A (Pre-1980)); “active; positive” (Species/Cell Type: Glycine max (soybean), Assay Type: Gene mutation, Assay Code: GLM+, Evaluation Type: Evaluation A (Pre-1980)); “inactive; negative” (Species/Cell Type: Human diploid fibroblasts, Assay Type: Unscheduled DNA synthesis (UDS) in vitro, DNA effects, Assay Code: UDH-, Evaluation Type: Evaluation A (Pre-1980)); “no conclusion” under setting [1]; “active; positive” (Species/Cell Type: Human, Assay Type: Sister-chromatid exchange (SCE) in vitro, Assay Code: SC1+, Evaluation Type: Evaluation B (Post-1980)); “active; positive” (Species/Cell Type: Mammalian polychromatic erythrocytes, Assay Type: Micronucleus test, chromosome aberrations, Assay Code: MNT+U, Dose Response: Unconfirmed positive response, Evaluation Type: Evaluation B (Post-1980)). In addition, the mutagenic call runs as follows: (Species/Cell Type: Mouse (C3H/10T1/2) cells, Assay Type: Cell transformation, Assay Code: CTH+, Evaluation Type: Evaluation A (Pre-1980)) “active; positive”; (Species/Cell Type: Neurospora crassa, Assay Type: Aneuploidy, chromosome aberrations, Assay Code: NEN-, Evaluation Type: Evaluation A (Pre-1980)) “inactive; negative”; (Species/Cell Type: Nonhuman, Assay Type: Sister-chromatid exchange (SCE) in vitro, Assay Code: SC2+, Evaluation Type: Evaluation B (Post-1980)) “active; positive”; (Species/Cell Type: Saccharomyces cerevisiae, Assay Type: Mitotic recombination or gene conversion, Assay Code: YEH+, Evaluation Type: Evaluation A (Pre-1980)) “active; positive”; (Species/Cell Type: Salmonella typhimurium, Assay Type: Forward and reverse gene mutation, host-mediated assay, Assay Code: HMA-, Evaluation Type: Evaluation A (Pre-1980)) “inactive; negative”; (Species/Cell Type: Syrian hamster embryo (SA7/SHE) cells, Assay Type: Cell transformation, viral enhanced, Assay Code: CT7+, Evaluation Type: Evaluation A (Pre-1980)) “active; positive”. Also, the mutagenic call is, setting by setting: (Species/Cell Type: Syrian hamster embryo (SHE) cells, Assay Type: Cell transformation, clonal assay, Assay Code: CTC-, Evaluation Type: Evaluation A (Pre-1980)) “inactive; negative”; (Species/Cell Type: Vicia faba, Assay Type: Chromosome aberrations, Assay Code: VIC+, Evaluation Type: Evaluation A (Pre-1980)) “active; positive”. In addition, the call (Species/Cell Type: Nonhuman, Assay Code: CCGT, Evaluation Type: Evaluation A (Pre-1980)) is listed as “no conclusion”.
As to `O=S(=O)(O)c1c(N=Nc2c(O)ccc3ccccc23)ccc2ccccc12`, the mutagenic call under setting [2] was “inactive; negative”.
Regarding `CS(=O)(=O)OC[C@@H](O)[C@@H](O)[C@H](O)[C@H](O)COS(C)(=O)=O`, the mutagenic call (Species/Cell Type: Drosophila melanogaster, Assay Type: Sex-linked recessive lethal gene mutation, Assay Code: SRL+, Evaluation Type: Evaluation A (Pre-1980)) is “active; positive”.
Consider `O=[N+]([O-])c1ccc(O)c([N+](=O)[O-])c1`, for which the mutagenic call was “active; positive” under setting [3] and “inactive; negative” (Species/Cell Type: Arabidopsis species, Assay Type: Gene mutation, Assay Code: ARM-, Evaluation Type: Evaluation A (Pre-1980)).
In the case of `BrCC(Br)CBr`, the mutagenic call under setting [4] is “active; positive”.
As to `CNNC`, the mutagenic call is, setting by setting: (Species/Cell Type: Escherichia coli polA (W3119 vs P3478), Assay Type: Rec-assay, DNA effects (bacterial DNA repair), Assay Code: RE1+, Evaluation Type: Evaluation A (Pre-1980)) “active; positive”; (Species/Cell Type: Escherichia coli polA (W3119 vs P3478), Assay Type: Rec-assay, DNA effects (bacterial DNA repair), Assay Code: RE1T, Evaluation Type: Evaluation A (Pre-1980)) “no conclusion”; (Species/Cell Type: Mammalian polychromatic erythrocytes, Assay Type: Micronucleus test, chromosome aberrations, Assay Code: MNT+, Evaluation Type: Evaluation B (Post-1980)) “active; positive”; (Species/Cell Type: Mammalian polychromatic erythrocytes, Assay Type: Micronucleus test, chromosome aberrations, Assay Code: MNTT, Evaluation Type: Evaluation A (Pre-1980)) “no conclusion”; under setting [5], “no conclusion”; under setting [6], “active; positive”. Also, the mutagenic call by setting is: (Species/Cell Type: Saccharomyces cerevisiae, Assay Type: Mitotic recombination or gene conversion, Assay Code: YEHT, Evaluation Type: Evaluation A (Pre-1980)) “no conclusion”; under setting [2], “inactive; negative”; (Species/Cell Type: Salmonella typhimurium, Assay Type: Forward and reverse gene mutation, body fluid assay, Assay Code: BFU-, Evaluation Type: Evaluation A (Pre-1980)) “inactive; negative”; (Species/Cell Type: Salmonella typhimurium, Assay Type: Forward and reverse gene mutation, host-mediated assay, Assay Code: HMA+, Evaluation Type: Evaluation A (Pre-1980)) “active; positive”; (Species/Cell Type: Syrian hamster embryo (SHE) cells, Assay Type: Cell transformation, clonal assay, Assay Code: CTCT, Evaluation Type: Evaluation A (Pre-1980)) “no conclusion”. Besides, the call (Species/Cell Type: Nonhuman, Assay Code: CCG+, Evaluation Type: Evaluation A (Pre-1980)) is “active; positive”.
Consider `Cc1c2c(c(C)c3ccccc13)C(O)C(O)c1ccccc1-2` (stereo not given), for which the mutagenic call (Species/Cell Type: Chinese hamster lung (V79) cells, Assay Type: Forward gene mutation at the HPRT or ouabain locus, Assay Code: V79-*, Activation: With metabolic activation, Evaluation Type: Evaluation A (Pre-1980)) is “inactive; negative”.
For the compound `O=S(O)S(=O)(=O)O`, the mutagenic call reads like this: under setting [5], “no conclusion”; (Species/Cell Type: Nonhuman, Assay Type: Sister-chromatid exchange (SCE) in vitro, Assay Code: SC2T, Evaluation Type: Evaluation A (Pre-1980)) “no conclusion”; (Species/Cell Type: Nonhuman, Assay Type: Sister-chromatid exchange (SCE) in vivo, Assay Code: SC3-, Evaluation Type: Evaluation B (Post-1980)) “inactive; negative”.
For `Oc1ccc2c(cc3ccc4cccc5ccc2c3c45)c1O`, the mutagenic call by setting is: (Species/Cell Type: Mouse prostate cells, Assay Type: Cell transformation, Assay Code: CTM+D, Dose Response: With dose response, Evaluation Type: Evaluation A (Pre-1980)) “active; positive”; (Species/Cell Type: Syrian hamster embryo (SHE) cells, Assay Type: Cell transformation, clonal assay, Assay Code: CTC+, Evaluation Type: Evaluation A (Pre-1980)) “active; positive”.
Turning to `ClCc1c2ccccc2c(Cl)c2ccccc12`, the mutagenic call under setting [4] is “active; positive”.
On to `COc1cc(S(=O)(=O)O)c(C)cc1N=Nc1c(O)ccc2cc(S(=O)(=O)O)ccc12`, for which the mutagenic call reads like this: (Species/Cell Type: Drosophila melanogaster, Assay Type: Sex-linked recessive lethal gene mutation, Assay Code: SRL-, Evaluation Type: Evaluation A (Pre-1980)) “inactive; negative”; under setting [2], “inactive; negative”.
Consider `CC1(C)[C@H]2CC[C@]1(C)[C@H](O)C2`, for which the mutagenic call was “inactive; negative” (Species/Cell Type: Saccharomyces cerevisiae, Assay Type: Mitotic recombination or gene conversion, Assay Code: YEH-, Evaluation Type: Evaluation A (Pre-1980)) and “inactive; negative” under setting [2].
As for `CN1CCN(CCCN2c3ccccc3Sc3ccccc32)CC1`, the mutagenic call was “no conclusion” under setting [1] and “no conclusion” (Species/Cell Type: Human, Assay Type: Sister-chromatid exchange (SCE) in vitro, Assay Code: SC1T, Evaluation Type: Evaluation B (Post-1980)).
Consider `C[n+]1ccc(-c2cc[n+](C)cc2)cc1`, for which the mutagenic call is “active; positive” under setting [3]; “active; positive” (Species/Cell Type: Hordeum vulgare (barley), Assay Type: Chromosome aberrations, Assay Code: HOC+, Evaluation Type: Evaluation A (Pre-1980)); “active; positive” under setting [6]; “inactive; negative” under setting [7]; “active; positive” (Species/Cell Type: Saccharomyces cerevisiae, Assay Type: Mitotic recombination or gene conversion, Assay Code: YEC+, Evaluation Type: Evaluation A (Pre-1980)); “inactive; negative” (Species/Cell Type: Vicia faba, Assay Type: Chromosome aberrations, Assay Code: VIC-, Evaluation Type: Evaluation A (Pre-1980)).
On to `O=[N+]([O-])c1ccc(SSc2ccc([N+](=O)[O-])cc2)cc1`, for which the mutagenic call under setting [4] was “active; positive”.
Regarding `OCCN1CCN(C2Cc3cc(Cl)ccc3Sc3ccccc32)CC1` (stereo not given), the mutagenic call under setting [7] was “inactive; negative”.
Take `CCCCCCN(N=O)/C(N)=N/[N+](=O)[O-]`: under “Species/Cell Type: Salmonella typhimurium (one or more of the five standard strains: TA98, TA100, TA1535, TA1537, and TA1538), Assay Type: Histidine reverse gene mutation, Ames assay, Assay Code: SALT, Evaluation Type: Evaluation A (Pre-1980)”, the mutagenic call is reported as “no conclusion”.
